# Test results from US9439857B2, “Foam containing benzoyl peroxide” (Foamix Pharmaceuticals Ltd., priority 2007, dated 2016).
# System: skin hydration level
# Test: Skin hydration, Corneometer CM 825
# Type: in vivo, human
# Conditions: BPO-047 variants, 8% glycerin, 2% sodium PCA
# Description: Healthy subjects were applied with single dose of formulations as shown in Example 14. Skin hydration is measured using a Corneometer® CM 825 instrument. (Courage+Khazaka, Koln, Germany). The measuring principle of the Corneometer® CM 825 is based on capacitance measurement of dielectric medium. Any change in the dielectric constant due to skin surface hydration alters the capacitance of a measuring capacitor. It is capable of detecting even slight changes in the skin hydration level.
# Skin hydration level is assessed at baseline (fifteen minutes after each subject washed the left and right forearms) with the Corneometer® CM 825. The formulations are applied in designated chambers under occlusion for 6 hours which are then removed and the skin cleaned. Hydration is then measured one hour later.
# Study protocol: The study was performed in a temperature controlled room (20-24° C.). Subjects washed their arms with water (no soap) and dried their arms with dry paper towel. Formulations were applied using test chambers. The location of each chamber within the stripe was marked once applied (maximum of 3 stripes on each arm). Each stripe contained only one formulation. One stripe served as a control, non treated area. […] Skin hydration level was assessed at baseline T=0 (minimum 15 minutes following rinse), using the Corneometer® CM 825, and tested based on study design. […]
smiles,measurement,value
"O=C1CCC(C(=O)[O-])N1.[Na+] (centres unmarked) [Sodium PCA, sodium salt of 2-pyrrolidone-5-carboxylic acid]",hydration effect (Corneometer),increases hydration but to a lesser extent
OCC(O)CO [glycerin],hydration effect (Corneometer),main contributor to the hydration effect
